According to ChEMBL document CHEMBL1201862, “PubChem BioAssay data set” (2004):
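Five concentrations, 48 hours, 96-well plates. GI50 marks 50% less growth.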 Activity calls are given as the source filed them. Rule as the data show it: active = GI50 up to about 1.1 µM and inactive = higher.

Legend:
Assay in all cases: DTP human tumour cell line panel, 48 h
RPMI-8226 = system: RPMI-8226
IGROV-1 = system: IGROV-1
LOX IMVI = system: LOX IMVI
HL-60 = system: HL-60
UACC-257 = system: UACC-257
PC-3 = system: PC-3
NCI/ADR-RES = system: NCI/ADR-RES
SF-268 = system: SF-268
CCRF-CEM = system: CCRF-CEM
SW-620 = system: SW-620
M14 = system: M14
HCT-15 = system: HCT-15
SK-MEL-2 = system: SK-MEL-2
EKVX = system: EKVX
OVCAR-4 = system: OVCAR-4
NCI-H226 = system: NCI-H226
MDA-MB-435 = system: MDA-MB-435
786-0 = system: 786-0
SF-539 = system: SF-539
A498 = system: A498

Compound	GI50 (RPMI-8226)	GI50 (IGROV-1)	GI50 (LOX IMVI)	GI50 (HL-60)	GI50 (UACC-257)	GI50 (PC-3)	GI50 (NCI/ADR-RES)	GI50 (SF-268)	GI50 (CCRF-CEM)	GI50 (SW-620)	GI50 (M14)	GI50 (HCT-15)	GI50 (SK-MEL-2)	GI50 (EKVX)	GI50 (OVCAR-4)	GI50 (NCI-H226)	GI50 (MDA-MB-435)	GI50 (786-0)	GI50 (SF-539)	GI50 (A498)
CCOC(=O)Cc1nn2c(=O)cc(C)nc2s1	> 100 µM (inactive)	> 100 µM (inactive)	> 100 µM (inactive)	> 100 µM (inactive)	> 100 µM (inactive)	> 100 µM (inactive)	> 100 µM (inactive)	> 100 µM (inactive)	> 100 µM (inactive)	> 100 µM (inactive)	> 100 µM (inactive)	> 100 µM	> 100 µM (inactive)	> 100 µM (inactive)	> 100 µM (inactive)	> 100 µM (inactive)	> 100 µM (inactive)	> 100 µM (inactive)	55.2 µM (inactive)	
COC(=O)c1ccccc1C1CN=NC12Cc1ccc3c(c1C2=O)CCC3 (centres undefined)		> 100 µM (inactive)	9.04 µM (inactive)	19.6 µM (inactive)	44.1 µM (inactive)	49.3 µM (inactive)	19.5 µM (inactive)	27.6 µM (inactive)	19.3 µM (inactive)	> 100 µM (inactive)	> 100 µM (inactive)	> 100 µM	> 100 µM (inactive)	> 100 µM (inactive)	> 100 µM (inactive)	55.1 µM (inactive)	> 100 µM (inactive)	43.4 µM (inactive)	> 100 µM (inactive)	55.2 µM (inactive)
CCn1c(SCc2nnc(Nc3ccccc3)s2)nc2ccccc2c1=O	5.5 µM (inactive)	3.62 µM (inactive)	5.02 µM (inactive)		11.8 µM (inactive)	8.79 µM (inactive)	2.59 µM (inactive)	3.98 µM (inactive)	47.6 µM (inactive)	16.8 µM (inactive)	10.4 µM (inactive)	20.7 µM	5.14 µM (inactive)	3.56 µM (inactive)	1.82 µM (inactive)	2.19 µM (inactive)	10.3 µM (inactive)	2.02 µM (inactive)	3.27 µM (inactive)	1.67 µM (inactive)
CC(=O)NC(CC(C)C)C(=O)NC(CC(C)C)C(=O)NC(C=O)CCCNC(=N)N (centres undefined)	> 100 µM (inactive)	> 100 µM (inactive)	> 100 µM (inactive)		> 100 µM (inactive)	> 100 µM (inactive)	> 100 µM (inactive)	> 100 µM (inactive)	> 100 µM (inactive)	> 100 µM (inactive)	> 100 µM (inactive)	> 100 µM	> 100 µM (inactive)	> 100 µM (inactive)	> 100 µM (inactive)	42.3 µM (inactive)	> 100 µM (inactive)	> 100 µM (inactive)	> 100 µM (inactive)	> 100 µM (inactive)
C[C@H](c1ccccc1)N1C(=O)[C@@H](O)[C@H]1[C@H](CO)OCc1ccccc1	> 100 µM (inactive)	> 100 µM (inactive)	> 100 µM (inactive)		> 100 µM (inactive)	> 100 µM (inactive)	> 100 µM (inactive)	> 100 µM (inactive)	> 100 µM (inactive)	> 100 µM (inactive)	> 100 µM (inactive)	> 100 µM	> 100 µM (inactive)	> 100 µM (inactive)	> 100 µM (inactive)	> 100 µM (inactive)	> 100 µM (inactive)	> 100 µM (inactive)		20 µM (inactive)
COc1ccc2c(c1)CCC/C2=N\NS(=O)(=O)c1c(C)cc(C)cc1C		19 µM (inactive)	19.4 µM (inactive)		39.2 µM (inactive)	28.6 µM (inactive)	21.7 µM (inactive)		27.1 µM (inactive)	28.1 µM (inactive)	33.2 µM (inactive)	30.3 µM	34.3 µM (inactive)	23.2 µM (inactive)	29.9 µM (inactive)	22.2 µM (inactive)	27.7 µM (inactive)	19.1 µM (inactive)	19.2 µM (inactive)	31.8 µM (inactive)
N=C(N)/N=C(\N)Nc1cnccn1		> 100 µM (inactive)	> 100 µM (inactive)	> 100 µM (inactive)	> 100 µM (inactive)	> 100 µM (inactive)	> 100 µM (inactive)		> 100 µM (inactive)	> 100 µM (inactive)	> 100 µM (inactive)	> 100 µM	> 100 µM (inactive)	> 100 µM (inactive)	> 100 µM (inactive)	> 100 µM (inactive)	> 100 µM (inactive)	> 100 µM (inactive)	> 100 µM (inactive)	> 100 µM (inactive)
